Where only a bound is given, the exact number is not on record here.

In the experiment the target is T1, human F508del CFTR (Homo sapiens, UniProt P13569, DEL508-508).
T1 construct: expressed in transfected cells
Description: CFTR-YFP Assay, CFTR Corrector Protocol (YFP flux assay). In kind it is cell-based. The note with it: for Emax: normalized to the positive control, read-out: EMAX (% Efficacy, EMAX normalized to the positive control).

T1 sequence (P13569 with tags, fused parts or gaps DEL508-508): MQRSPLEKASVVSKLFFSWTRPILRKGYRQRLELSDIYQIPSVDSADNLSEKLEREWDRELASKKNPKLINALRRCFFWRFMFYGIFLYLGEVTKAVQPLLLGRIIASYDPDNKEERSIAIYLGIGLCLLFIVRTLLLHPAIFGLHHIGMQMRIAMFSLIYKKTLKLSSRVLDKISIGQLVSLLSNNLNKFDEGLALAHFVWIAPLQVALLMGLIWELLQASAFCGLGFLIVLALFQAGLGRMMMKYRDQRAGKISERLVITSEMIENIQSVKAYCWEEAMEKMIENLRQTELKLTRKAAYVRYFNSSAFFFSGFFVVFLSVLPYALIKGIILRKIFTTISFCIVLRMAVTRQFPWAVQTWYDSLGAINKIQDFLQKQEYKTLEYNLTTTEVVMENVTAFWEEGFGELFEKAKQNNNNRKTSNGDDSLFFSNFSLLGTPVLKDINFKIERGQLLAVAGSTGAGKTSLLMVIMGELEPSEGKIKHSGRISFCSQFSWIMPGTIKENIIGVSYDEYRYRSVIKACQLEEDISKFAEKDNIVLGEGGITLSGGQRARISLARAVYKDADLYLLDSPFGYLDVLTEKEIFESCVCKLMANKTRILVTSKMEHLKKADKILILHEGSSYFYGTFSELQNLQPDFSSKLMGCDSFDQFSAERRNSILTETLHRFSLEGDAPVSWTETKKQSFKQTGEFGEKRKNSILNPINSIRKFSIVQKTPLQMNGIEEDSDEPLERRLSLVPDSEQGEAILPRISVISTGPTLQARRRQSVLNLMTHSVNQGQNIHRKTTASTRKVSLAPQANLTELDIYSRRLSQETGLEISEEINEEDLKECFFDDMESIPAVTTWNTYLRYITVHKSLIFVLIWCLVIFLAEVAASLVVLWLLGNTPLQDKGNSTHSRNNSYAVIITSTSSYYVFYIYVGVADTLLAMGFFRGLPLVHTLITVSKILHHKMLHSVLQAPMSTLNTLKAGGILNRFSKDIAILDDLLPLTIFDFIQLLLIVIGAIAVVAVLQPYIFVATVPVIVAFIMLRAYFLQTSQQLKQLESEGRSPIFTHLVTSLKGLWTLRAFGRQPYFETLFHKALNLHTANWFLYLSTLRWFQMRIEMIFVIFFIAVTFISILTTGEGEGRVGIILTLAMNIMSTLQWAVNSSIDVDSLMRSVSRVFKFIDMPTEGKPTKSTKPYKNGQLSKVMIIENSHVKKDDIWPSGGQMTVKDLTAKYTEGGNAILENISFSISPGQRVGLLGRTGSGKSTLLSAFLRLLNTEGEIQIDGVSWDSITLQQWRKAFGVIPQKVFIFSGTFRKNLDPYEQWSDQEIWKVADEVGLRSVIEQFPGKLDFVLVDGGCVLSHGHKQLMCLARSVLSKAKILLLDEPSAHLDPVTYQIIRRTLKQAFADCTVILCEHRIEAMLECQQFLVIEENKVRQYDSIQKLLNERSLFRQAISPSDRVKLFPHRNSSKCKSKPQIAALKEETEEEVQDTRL

Regarding `Cc1ccc(S(=O)(=O)N2CCC(n3c(-c4ccccc4Cl)nc4cccnc43)CC2)cc1` [Example 59], the EC50 (as a rule, the concentration that produces a half-maximal response) was < 10 µM and the maximum response (Emax) (in general, the size of the effect at its maximum, as opposed to the concentration needed) lay in the range of 30 to 80%.

For `COc1ccc(S(=O)(=O)N2CCC(n3c(-c4ccccc4Cl)nc4cccnc43)CC2)cc1F` [Example 60], the EC50 is < 10 µM and the maximal effect (Emax) is 30 to 80%.

Turning to `Cc1ccc(S(=O)(=O)N2CCC(n3c(-c4ccccc4)nc4ccc(C)nc43)CC2)cc1` [Example 61], the EC50 is < 10 µM and the Emax was 30 to 80%.

As for `Cc1ccc2nc(-c3ccccc3)n(C3CCN(S(=O)(=O)c4ccc5c(c4)OCO5)CC3)c2n1` [Example 62], the EC50 is < 10 µM and the Emax was in the range of 30 to 80%.

Turning to `Cc1ccc2nc(-c3ccccc3)n(C3CCN(S(=O)(=O)c4ccc(C)c(Cl)c4)CC3)c2n1` [Example 63], the EC50 is < 10 µM and the Emax fell in the range of 30 to 80%.

For `COc1ccc(S(=O)(=O)N2CCC(n3c(-c4ccccc4)nc4ccc(C)nc43)CC2)cc1F` [Example 64], the 50% effective concentration (EC50) was < 10 µM and the maximum response (Emax) fell in the range of 30 to 80%.

In the case of `Cc1ccc(S(=O)(=O)N2CCC(n3c(-c4ccccc4Cl)nc4ccc(C)nc43)CC2)cc1` [Example 65], the EC50 was < 10 µM and the maximal effect (Emax) fell in the range of 30 to 80%.

With `O=S(=O)(N1CCOCC1)N1CCC(n2c(-c3ccccc3)nc3cccnc32)CC1` [Example 67], the EC50 was > 20 µM and the Emax lay within 10 to 30%.

Turning to `COc1cccc(S(=O)(=O)N2CCC(n3c(-c4ccccc4)nc4cccnc43)CC2)c1` [Example 68], the half-maximal effective concentration (EC50) was < 10 µM and the Emax was 10 to 30%.

In the case of `CC(C)c1ccc(S(=O)(=O)N2CCC(n3c(-c4ccccc4)nc4cccnc43)CC2)cc1` [Example 69], the EC50 is < 10 µM and the Emax was 10 to 30%.

On to `CC(=O)Nc1ccc(S(=O)(=O)N2CCC(n3c(-c4ccccc4)nc4cccnc43)CC2)cc1Cl` [Example 70], for which the EC50 was < 10 µM and the Emax lay in the range of 10 to 30%.

For `N#Cc1ccc(S(=O)(=O)N2CCC(n3c(-c4ccccc4)nc4cccnc43)CC2)cc1Cl` [Example 71], the EC50 is < 10 µM and the Emax is 10 to 30%.

Turning to `O=S(=O)(c1c[nH]cn1)N1CCC(n2c(-c3ccccc3)nc3cccnc32)CC1` [Example 72], the EC50 was < 10 µM and the maximal effect (Emax) lay within 10 to 30%.

In the case of `COc1ccc(S(=O)(=O)N2CCC(n3c(-c4ccccc4)nc4cccnc43)CC2)cc1C` [Example 73], the 50% effective concentration (EC50) was < 10 µM and the maximal response (Emax) fell in the range of 30 to 80%.

With `COc1ccc(S(=O)(=O)N2CCC(n3c(-c4ccccc4)nc4cccnc43)CC2)cc1C(F)(F)F` [Example 74], the EC50 is < 10 µM and the Emax was in the range of 30 to 80%.

In the case of `COc1ccc(S(=O)(=O)N2CCC(n3c(-c4ncc[nH]4)nc4cccnc43)CC2)cc1Cl` [Example 75], the EC50 lay within 10 to 20 µM and the Emax is 30 to 80%.

For the molecule `COc1ccc(S(=O)(=O)N2CCC(n3c(-c4ccccc4OC(F)(F)F)nc4cccnc43)CC2)cc1Cl` [Example 76], the EC50 is < 10 µM and the Emax lay within 30 to 80%.

`COc1ccc(S(=O)(=O)N2CCC(n3c(-c4ccc(F)cc4)nc4cccnc43)CC2)cc1Cl` [Example 77]: the EC50 was < 10 µM and the Emax is 30 to 80%.

With `COc1ccc(S(=O)(=O)N2CCC(n3c(-c4ccc(C(F)(F)F)cc4)nc4cccnc43)CC2)cc1Cl` [Example 78], the EC50 was < 10 µM and the maximal effect (Emax) was in the range of 10 to 30%.

`COC(=O)c1ccccc1-c1nc2cccnc2n1C1CCN(S(=O)(=O)c2ccc(OC)c(Cl)c2)CC1` [Example 79]: the concentration giving a half-maximal response (EC50) was < 10 µM and the Emax was 30 to 80%.

`COc1ccc(S(=O)(=O)N2CCC(n3c(-c4ccccc4OC(C)=O)nc4cccnc43)CC2)cc1Cl` [Example 80]: the 50% effective concentration (EC50) was < 10 µM and the maximal response (Emax) was 30 to 80%.

`COc1ccc(S(=O)(=O)N2CCC(n3c(-c4ccccc4)nc4ccccc43)CC2)cc1Cl` [Example 81]: the EC50 is < 10 µM and the Emax fell in the range of 30 to 80%.

Regarding `O=S(=O)(c1ccc2c(c1)OC(F)(F)O2)N1CCC(n2c(-c3ccccc3)nc3ccccc32)CC1` [Example 82], the EC50 was < 10 µM and the Emax lay within 30 to 80%.

Take `Cc1ccc2nc(-c3ccccc3F)n(C3CCN(S(=O)(=O)c4ccc5c(c4)OC(F)(F)O5)CC3)c2n1` [Example 83]: the concentration giving a half-maximal response (EC50) is < 10 µM and the Emax was 30 to 80%.

Consider `Cc1ccc2nc(-c3ccc(F)cc3)n(C3CCN(S(=O)(=O)c4ccc5c(c4)OC(F)(F)O5)CC3)c2n1` [Example 84], for which the EC50 was < 10 µM and the Emax was 30 to 80%.

Consider `COc1ccc(S(=O)(=O)N2CCC(n3c(-c4ccccc4Cl)nc4ccc(C)nc43)CC2)cc1OC` [Example 85], for which the concentration for a half-maximal effect (EC50) is > 20 µM and the Emax is 10 to 30%.

For the molecule `Cc1ccc2nc(-c3ccccc3Cl)n(C3CCN(S(=O)(=O)c4ccc5c(c4)OC(F)(F)O5)CC3)c2n1` [Example 86], the half-maximal effective concentration (EC50) was < 10 µM and the Emax was in the range of 30 to 80%.

For the molecule `Cc1ccc2nc(-c3ccc4c(c3)OC(F)(F)O4)n(C3CCN(S(=O)(=O)c4ccc5c(c4)OC(F)(F)O5)CC3)c2n1` [Example 87], the concentration for a half-maximal effect (EC50) is > 20 µM and the Emax lay within 10 to 30%.

`COc1ccc(S(=O)(=O)N2CCC(n3c(-c4cccnc4Cl)nc4cccnc43)CC2)cc1Cl` [Example 88]: the half-maximal effective concentration (EC50) was > 20 µM and the Emax was 30 to 80%.

Take `COc1ccc(S(=O)(=O)N2CCC(n3c(-c4ccncc4Cl)nc4cccnc43)CC2)cc1Cl` [Example 89]: the EC50 was in the range of 10 to 20 µM and the Emax was > 80%.

`COc1ccc(S(=O)(=O)N2CCC(n3c(-c4ncccc4Cl)nc4cccnc43)CC2)cc1Cl` [Example 90]: the EC50 is 10 to 20 µM and the Emax is 30 to 80%.

Turning to `CCc1ccc(S(=O)(=O)N2CCC(n3c(-c4ncccc4Cl)nc4cccnc43)CC2)cc1` [Example 91], the concentration for a half-maximal effect (EC50) is < 10 µM and the Emax was 30 to 80%.

Turning to `O=S(=O)(c1ccc2c(c1)OCO2)N1CCC(n2c(-c3cccnc3Cl)nc3cccnc32)CC1` [Example 92], the concentration giving a half-maximal response (EC50) was < 10 µM and the maximal response (Emax) was in the range of 30 to 80%.

Consider `O=S(=O)(c1ccc2c(c1)OCO2)N1CCC(n2c(-c3ncccc3Cl)nc3cccnc32)CC1` [Example 93], for which the EC50 is < 10 µM and the Emax fell in the range of 30 to 80%.

As to `O=S(=O)(c1cccc(OC(F)F)c1)N1CCC(n2c(-c3ccncc3Cl)nc3cccnc32)CC1` [Example 94], the concentration for a half-maximal effect (EC50) was < 10 µM and the maximal response (Emax) fell in the range of 10 to 30%.

With `Cc1ccc(S(=O)(=O)N2CCC(n3c(-c4ccncc4Cl)nc4cccnc43)CC2)cc1C#N` [Example 95], the EC50 fell in the range of 10 to 20 µM and the Emax lay within 10 to 30%.

With `Cc1ccc(S(=O)(=O)N2CCC(n3c(-c4ccccc4Cl)nc4cccnc43)CC2)cc1C#N` [Example 96], the half-maximal effective concentration (EC50) is < 10 µM and the Emax fell in the range of 30 to 80%.

Regarding `Cc1ccc2nc(-c3ccccc3)n(C3CCN(S(=O)(=O)c4ccc5c(c4)OC(F)(F)O5)CC3)c2n1` [Example 97], the EC50 is < 10 µM and the Emax is 30 to 80%.

On to `COc1ccc(S(=O)(=O)N2CCC(n3c(-c4ccccc4)cc4cccnc43)CC2)cc1Cl` [Example 98], for which the EC50 is < 10 µM and the Emax is 10 to 30%.

Take `O=S(=O)(c1ccc2c(c1)OC(F)(F)O2)N1CCC(n2c(-c3ccccc3)cc3cccnc32)CC1` [Example 99]: the 50% effective concentration (EC50) is < 10 µM and the Emax was in the range of 30 to 80%.

With `O=S(=O)(c1ccc2c(c1)OCO2)N1CCC(n2c(-c3ccccc3C(F)(F)F)nc3cccnc32)CC1` [Example 100], the EC50 was < 10 µM and the maximum response (Emax) is 10 to 30%.

Take `Cc1ccc2nc(-c3cccnc3Cl)n(C3CCN(S(=O)(=O)c4ccc5c(c4)OCO5)CC3)c2n1` [Example 101]: the concentration giving a half-maximal response (EC50) was < 10 µM and the Emax lay in the range of 10 to 30%.

Regarding `O=S(=O)(c1ccc2c(c1)OC(F)(F)O2)N1CCC(n2c(-c3cccnc3Cl)nc3cccnc32)CC1` [Example 102], the EC50 was < 10 µM and the maximal response (Emax) lay in the range of 30 to 80%.

Take `COc1ccc(S(=O)(=O)N2CCC(n3c(-c4ccccc4)cc4ccccc43)CC2)cc1Cl` [Example 103]: the 50% effective concentration (EC50) is < 10 µM and the maximum response (Emax) lay within 10 to 30%.

Take `O=S(=O)(c1ccc2c(c1)OC(F)(F)O2)N1CCC(n2c(-c3ccccc3)cc3ccccc32)CC1` [Example 104]: the EC50 is < 10 µM and the maximal response (Emax) was in the range of 30 to 80%.

For `O=S(=O)(c1ccc2c(c1)OCO2)N1CCC(n2c(-c3ccc(F)nc3F)nc3cccnc32)CC1` [Example 105], the EC50 was < 10 µM and the Emax fell in the range of 30 to 80%.

On to `O=S(=O)(c1ccc2c(c1)OC(F)(F)O2)N1CCC(n2c(-c3ccc(F)nc3F)nc3cccnc32)CC1` [Example 106], for which the concentration for a half-maximal effect (EC50) was < 10 µM and the Emax was in the range of 10 to 30%.

As for `O=S(=O)(c1ccc2c(c1)OCO2)N1CCC(n2c(-c3ccncc3F)nc3cccnc32)CC1` [Example 107], the concentration giving a half-maximal response (EC50) was < 10 µM and the Emax is 30 to 80%.

Turning to `O=S(=O)(c1ccc2c(c1)OCO2)N1CCC(n2c(-c3ccc(F)cc3F)nc3cccnc32)CC1` [Example 108], the concentration giving a half-maximal response (EC50) is < 10 µM and the Emax was in the range of 30 to 80%.

As to `O=S(=O)(c1ccc2c(c1)OC(F)(F)O2)N1CCC(n2c(-c3ccc(F)cc3F)nc3cccnc32)CC1` [Example 109], the EC50 is < 10 µM and the Emax was 30 to 80%.

Take `CCc1ccc(S(=O)(=O)N2CCC(n3c(-c4ccncc4F)nc4cccnc43)CC2)cc1` [Example 110]: the EC50 is < 10 µM and the Emax is 30 to 80%.

Take `CCc1ccc(S(=O)(=O)N2CCC(n3c(-c4ccc(F)nc4F)nc4cccnc43)CC2)cc1` [Example 111]: the concentration giving a half-maximal response (EC50) was < 10 µM and the Emax fell in the range of 30 to 80%.

On to `Cc1ccc2nc(-c3ccncc3F)n(C3CCN(S(=O)(=O)c4ccc5c(c4)OC(F)(F)O5)CC3)c2n1` [Example 112], for which the EC50 is < 10 µM and the maximum response (Emax) was > 80%.

On to `CCc1ccc(S(=O)(=O)N2CCC(n3c(-c4ccncc4F)nc4ccc(C)nc43)CC2)cc1` [Example 113], for which the EC50 is < 10 µM and the Emax lay within 30 to 80%.

The values above are taken from patent US9944603B2, “Compounds and methods for the treatment of cystic fibrosis” (Flatley Discovery Lab, LLC, priority 2013, dated 2018).
